The text below walks through data of patent US20240041859A1, “METHODS OF TREATING AND PREVENTING KIDNEY DISEASE” (Washington University, priority 2020, published 2024).

Experiment [1] has as its system pkd1-null (WT9-12) cells. In words: centrosome clustering inhibitors on ADPKD cell line. The conditions noted are these: for mitotic progression / spindle assembly checkpoint (SAC) and cell death of cells with CA: cells with CA; for centrosome clustering in cells with CA: pkd1-null (WT9-12) cells. In kind it is cell-based. An excerpt: (§1) Since this approach worked in ADPKD cells, mouse models were subsequently used to test the efficacy of the inhibitors in vivo.

Experiment [2] deals with wild-type (HK2) cells. As to the kind of experiment: centrosome clustering inhibitors on wild-type cells. It is filed as cell-based.
Source text: as §1

The subject of experiment [3] is CPAP-tubulin interaction. The conditions noted are these: binding to tubulin, competing for the CPAP binding site of P-tubulin; cited from earlier work.
The test system of experiment [4] is PKD1^RC/RC mice. In words: slow-onset ADPKD mouse model, five-month treatment from six months of age. It is filed as in vivo. An excerpt:
To test the inhibitors, a slow-onset mouse model of ADPKD was needed that would allow for an extended period of time to treat these mice with the centrosome clustering inhibitors. The widely used slow-onset ADPKD model called the PKD1^RC/RC mouse (Hopp et al, JCI, 2012) was chosen for the small molecule inhibitor tests. These mice develop cysts slowly, such that kidney size increases around 6 months of age, and kidney function declines—as indicated by elevated blood-urea nitrogen (BUN) levels—around 9 months of age. The mice also show extensive cystogenesis as they age. […] Thus, this model was ideal for testing the centrosome clustering inhibitors. Using the slow-onset ADPKD model, the optimal effective time-course for inhibition of centrosome clustering using CCB02 and PJ-34 can be determined. Example 1 describes treatment at timepoints (e.g., beginning at six months of age, beginning at nine months, and up to eleven months of age) and for periods of time (e.g., every other day for sixty days or two months, every two days for five months). PKD1^RC/RC mice were treated with the inhibitors beginning at six months of age—at a stage when their kidneys have yet to dramatically increase in size and show functional decline (see e.g., FIG. 8). Centrosome clustering inhibitor CCB02 was administered by gavage every two days for a total of five months. Also included in the analysis was the only FDA-approved drug for ADPKD, tolvaptan. […] Blood and urine were collected at one-month intervals to monitor kidney function (see e.g., FIG. 8).

Experiment [5] relates to PKD1^RC/RC mice. In words: slow-onset ADPKD mouse model, sixty-day treatment followed by three-month washout. It is filed as in vivo. An excerpt:
To test the inhibitors, a slow-onset mouse model of ADPKD was needed that would allow for an extended period of time to treat these mice with the centrosome clustering inhibitors. The widely used slow-onset ADPKD model called the PKD1^RC/RC mouse (Hopp et al, JCI, 2012) was chosen for the small molecule inhibitor tests. These mice develop cysts slowly, such that kidney size increases around 6 months of age, and kidney function declines—as indicated by elevated blood-urea nitrogen (BUN) levels—around 9 months of age. The mice also show extensive cystogenesis as they age. […] Thus, this model was ideal for testing the centrosome clustering inhibitors. Using the slow-onset ADPKD model, the optimal effective time-course for inhibition of centrosome clustering using CCB02 and PJ-34 can be determined. Example 1 describes treatment at timepoints (e.g., beginning at six months of age, beginning at nine months, and up to eleven months of age) and for periods of time (e.g., every other day for sixty days or two months, every two days for five months). […] PKD1^RC/RC mice were administered centrosome clustering inhibitor CCB02 beginning at nine months and up to eleven months of age (see e.g., FIG. 12A). CCB02 was administered by gavage every other day for sixty days (see e.g., FIG. 8). The treatment was arrested for three months, and animals were monitored for three additional months to determine if cysts returned once the compounds are no longer administered.

The conditions of experiment [6]: annually; cited from earlier work.
Setting [7] is: five months treatment vs two-month scheme.

The structures appear in SMILES notation.

With `COc1ncc2cc3ccccc3nc2c1C#N` [CCB02], in experiment [1], the mitotic progression result is listed as “delay in mitotic progression”; the “spindle assembly checkpoint (SAC) and cell death of cells with CA” value is recorded as “activation of the spindle assembly checkpoint (SAC), leading to cell death”; the “centrosome clustering in cells with CA” value is on record as “inhibited centrosome clustering”. For the same compound, the “normal mitotic spindle formation in cells with normal centrosome number” value in experiment [2] is listed as “not impacting normal mitotic spindle formation”. Further, in experiment [3], the concentration for half-maximal inhibition (IC50) was 689 nM. In addition, in experiment [4] (five months treatment), the cyst formation result is given as “better results in comparison to the FDA-approved drug tolvaptan” and the fibrosis markers result is “significant reduction in fibrosis markers”. Further, in experiment [4] (setting [7]), the effect on cystogenesis entry is “even greater effect on cystogenesis” and the “effect on renal fibrosis” value is given as “even greater effect on renal fibrosis”. Further, in experiment [5] (gavage every other day for sixty days, compared to untreated mice), the “cyst formation at eleven months” value is reported as “reduction in cyst formation”. In addition, in experiment [5] (three months post-washout), the BUN entry was “no increase”, the cyst re-formation result was “cysts did not reform”, the fibrosis entry is recorded as “fibrosis was not evident” and the serum creatinine result is “no increase”.
As for `CN(C)CC(=O)Nc1ccc2[nH]c(=O)c3ccccc3c2c1.Cl` [PJ-34], in experiment [1], the mitotic progression entry is on record as “delay in mitotic progression”; the “spindle assembly checkpoint (SAC) and cell death of cells with CA” value was “activation of the spindle assembly checkpoint (SAC), leading to cell death”; the “centrosome clustering in cells with CA” value was “inhibited centrosome clustering”. Moreover, the “normal mitotic spindle formation in cells with normal centrosome number” value in experiment [2] is “not impacting normal mitotic spindle formation”.
For the compound `Cc1ccccc1C(=O)Nc1ccc(C(=O)N2CCCC(O)c3cc(Cl)ccc32)c(C)c1` (centres unmarked) [tolvaptan], the “reduction of the rate of decline in renal function” value in experiment [6] is 2%-3%. Moreover, the fibrosis markers entry in experiment [4] (five months treatment) is “significant reduction in fibrosis markers”.
